This is an account of results in article PMC5218480 (PLoS ONE, 2017).

In the assay the test system is MV-4-11 cells. In words: Gene expression microarray analysis (Affymetrix PrimeView) and GSEA. Type of assay: cell-based, human. The conditions noted are these: gene C12orf56; ACY-1035 1 mM; LIST F.

With `Nc1ccc(-c2cccs2)cc1NC(=O)c1ccc2c(c1)cc(C1CC1)n2CCN1CCOCC1` [ACY-1035], the “RFU, C12orf56 (ProbeSet 11735607_a_at)” value came out at 71.19 RFU.
